The record followed here is the METLIN SMRT retention time set (Domingo-Almenara et al. 2019).

This data set is described as follows: gradient 5% acetonitrile 3 min, to 50% in 2 min, to 85% in 15 min, held 3 min, 100 µL/min. Particulars: column: Zorbax Extend-C18 2.1 x 50 mm; eluents: water / acetonitrile, 0.1% formic acid. The gist of the method: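 Using water and acetonitrile that each contained 0.1% formic acid, mixtures of ~100 pure standards were separated at 100 μL/min on a Zorbax Extend-C18 column (2.1 × 50 mm, 1.8 μm). The HPLC fed a quadrupole time-of-flight mass spectrometer working in positive and negative ionization mode, with dead and dwell volumes of 40 μL and 900 μL. Data were acquired over 3 months. Retention time was read from computationally picked adduct peaks after manual inspection of each.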
In turn, `COc1cccc(-c2nnc(Cc3nc(-c4ccc(Cl)cc4)no3)o2)c1` registered an RP-LC retention time of 1100 s.
The molecule `O=C(Cn1nc(N2CCCC2)c2ccccc2c1=O)Nc1ccc(F)c(F)c1` had an RP-LC retention time of 950 s.
As for `Cc1nn(-c2ccc(-c3noc(C4CC4)n3)cc2)cc1C(=O)Nc1cc(F)ccc1F`, the figure is 1070 s.
Turning to `O=C(c1ccc2ncnc(N3CCCCC3)c2c1)N1CCCCC1`, the RP-LC retention time worked out at 636 s.
Turning to `COc1ccc2nc(NC3=NCN(CCc4cccs4)CN3)nc(C)c2c1`, the RP-LC retention time was determined as 743 s.
For the molecule `CC(=O)c1ccc(NC(=O)c2cn(C)nc2C)cc1`, the RP-LC retention time came out at 630 s.
`CN(C)[C@@H]1CN(C(=O)C2CCCC2)CC[C@@H]1CO` registered an RP-LC retention time of 569 s.
As for `O=C(OCc1ccccc1)c1nc2ccccc2nc1N1CCN(c2ccccn2)CC1`, the figure is 798 s; as for `CCCCOc1ccc(C(=O)N2CCCC2c2nc(-c3ccc(OC)cc3)no2)cc1` (centres undefined), 1180 s.
Consider `CS(=O)(=O)N1CCN(Cc2cc3nc(-c4cccc5[nH]ncc45)nc(N4CCOCC4)c3s2)CC1`, for which the RP-LC retention time worked out at 706 s.
`CCCN1CCN(CCCNC(=O)C2=Cc3cc(Br)ccc3OC2)CC1`: the RP-LC retention time is 610 s.
As for `CCc1nccn1Cc1nc(-c2ccccc2F)no1`, the figure is 603 s; as for `O=C(NCc1csc(C2CCN(C(=O)c3ccc(Cl)cc3)CC2)n1)C1CC1`, 725 s; as for `CC(=O)Nc1ccc(S(=O)(=O)N2CCN(c3cc(C)c4ccccc4n3)CC2)cc1`, 632 s.
As for `CC1CCN(S(=O)(=O)c2ccc(-c3nnc(C(=O)NCCN4CCOCC4)o3)cc2)CC1`, the figure is 674 s; as for `Cc1ccccc1-c1noc(Cn2cnc3c(cnn3-c3ccc(Br)cc3)c2=O)n1`, 1200 s.
`Cc1cc(Nc2ccc(NC(=O)c3sc(C)nc3C)cc2)nc(N2CCCC2)n1` came in with an RP-LC retention time of 583 s.
Regarding `O=C(NCC1CCN(C(=O)COc2ccccc2)CC1)c1ccc(Br)o1`, the RP-LC retention time came out at 722 s.
As for `CCCn1c(=O)c(C)nc2cc(-c3noc(-c4cccc(OC)c4OC)n3)ccc21`, the figure is 1140 s; as for `CCc1ccc(S(=O)(=O)N2CCN(CCc3cn(C)c4ncccc34)CC2)cc1`, 668 s; as for `CC(C)(C)C(O)CCNC(=O)C(=O)NC1CC1` (centres undefined), 622 s.
Molecule `Cc1ccn2c(Nc3ccc4c(c3)OCO4)c(-c3ccccc3)nc2c1` returned an RP-LC retention time of 690 s.
Take `CC(C)(Oc1ccc(Cl)cc1)C(=O)N1CCN(CCn2cccn2)CC1`: the RP-LC retention time stood at 598 s.
As for `CC1CCC(N2CC(=O)N(CCN3CCOCC3)C(c3cccnc3)C2=O)CC1` (centres undefined), the figure is 548 s; as for `O=S(=O)(NCc1ccccc1Cl)c1c[nH]c2ncccc12`, 742 s; as for `CCOc1ccc2nc(Nc3ncc4c(n3)CCCC4=O)nc(C)c2c1`, 588 s.
`O=C(CSc1ccc(N2CCCC(C(=O)NC3CC3)C2)nn1)Nc1ccc(C(F)(F)F)cc1` (centres undefined) had an RP-LC retention time of 729 s.
Molecule `COC(=O)COc1cc(-c2cccc(Cl)c2)nc2ccc(NC(=O)c3ccco3)cc12` showed an RP-LC retention time of 886 s.
The molecule `O=C(NC1CCCCC1)C1CCN(c2cncnc2N2CCCCC2)CC1` displayed an RP-LC retention time of 672 s.
Regarding `COCCc1noc(C2Cc3ccccc3N2C(=O)Nc2ccc(OC)c(OC)c2)n1` (centres undefined), the RP-LC retention time is 851 s.
In turn, `CCCC(C)C(=O)N1CC2CN(S(=O)(=O)c3ccccc3)CC(C1)O2` (centres undefined) displayed an RP-LC retention time of 807 s.
Consider `CCn1cc(S(=O)(=O)N2CCC(c3noc(-c4ccncc4)n3)C2)cn1` (centres undefined), for which the RP-LC retention time worked out at 707 s.
`Cc1cc(C)c(C)c(S(=O)(=O)NCC(=O)NCc2ccco2)c1C` showed an RP-LC retention time of 573 s.
As for `CC1=C(c2ccc(F)cc2)S(=O)(=O)N=C1N1CCCN(C(=O)NC2CCCCC2)CC1`, the figure is 845 s; as for `COc1cccc(-c2nc(-c3cn(Cc4cccc(F)c4)nn3)no2)c1`, 995 s; as for `Cc1ccc(OCC(=O)Nc2cc3c(cc2N2CCOCC2)n(C)c(=O)c(=O)n3C)c(C)c1`, 787 s.
For `O=C(Cn1cc(-c2ccccc2)c2ncnc(N3CCCCC3)c21)Nc1ccccc1`, the RP-LC retention time was found to be 798 s.
For the molecule `COc1ccc(C2(C(=O)N3CC(F)(F)C[C@H]3CN3CCN(C)CC3)CC2)cc1`, the RP-LC retention time turned out to be 641 s.
In turn, `COc1ccccc1-c1nnc(-c2cc(S(=O)(=O)N3CCC(C)CC3)ccc2Cl)o1` displayed an RP-LC retention time of 1160 s.
Regarding `CCN(CC)CCCNC(=O)C1CCN(C(=O)c2oc3cc4sc(N(C)C)nc4cc3c2C)CC1`, the RP-LC retention time was determined as 564 s.
Turning to `O=S(=O)(c1ccc(-c2nnc(C3CC3)o2)o1)N1CCN(C2CCCCC2)CC1`, the RP-LC retention time was determined as 642 s.
As for `Cc1ccc(-c2noc(Cn3ccnc3)n2)cc1`, the RP-LC retention time is 624 s.
With `CCCc1nnsc1C(=O)NCC1CCN(C(=O)Oc2ccccc2)CC1`, the RP-LC retention time was determined as 863 s.
As for `Cn1nc(-c2nnc(-c3ccc(F)cc3)o2)c2c1CCN(S(=O)(=O)c1cccc3nsnc13)C2`, the figure is 910 s; as for `O=C(Nc1cc(F)cc(F)c1)c1ccc(N2CCN(c3ccccn3)CC2)c([N+](=O)[O-])c1`, 698 s; as for `Cc1cc(N2CCCC2)nc(N2CCN(C(=O)c3ccc(-c4ccccc4)cc3)CC2)n1`, 813 s.
As for `COCC(=O)N(C1CCOCC1)C1CCN(S(=O)(=O)c2ccc(F)cc2)CC1`, the figure is 749 s.
Consider `CC(C)c1ccc(-n2nc(N3CCN(C(=O)c4cccs4)CC3)ccc2=O)cc1`, for which the RP-LC retention time worked out at 913 s.
Turning to `Cc1cccc(-n2c(=O)c3sccc3n(Cc3nc(-c4ccc(C(F)(F)F)cc4)no3)c2=O)c1`, the RP-LC retention time came out at 1120 s.
`COc1ccc(-c2nc(C3CC(=O)N(c4ccc(F)cc4)C3)no2)cc1F` (centres undefined): the RP-LC retention time came to 969 s.
`Cc1cc(C)cc(NC(=O)N2CCC(N3CCN(Cc4ccc(F)cc4)C(=O)C3=O)CC2)c1` yielded an RP-LC retention time of 788 s.
As for `O=C(Cn1cnc(-c2noc(-c3ccc(F)cc3)n2)c1)NCc1ccc(Cl)cc1`, the figure is 917 s; as for `CCc1cccc(NC(=O)N2CCc3c(c(COc4ccccc4)nn3C)C2)c1`, 934 s.
Turning to `CCC(=O)Nc1cccn2nc(C3CCC3)nc12`, the RP-LC retention time came out at 735 s.
In the case of `O=C(NCc1nn(Cc2ccccc2)c2ccccc12)c1cnccn1`, the RP-LC retention time was determined as 858 s.
As for `COC(=O)c1c(NCc2c(C)noc2C)c2cccc(Cl)c2[nH]c1=O`, the figure is 706 s.
As for `O=C(Nc1cc(-c2ccsc2)no1)c1ccc(Cl)cc1`, the figure is 1010 s; as for `O=C(NCc1ccccc1)C1CCN(c2cnc(N3CCCC3)nc2)CC1`, 639 s; as for `COc1ccc(-c2nc3ccccn3c2NC(=O)c2ccc(Cl)c([N+](=O)[O-])c2)cc1`, 720 s.
As to `CCN(CC)C(=O)c1cnc2nc(C)ccc2c1Nc1ccc(C(C)=O)cc1`, the RP-LC retention time was found to be 589 s.
Molecule `COCCN1C(=O)CCc2cc(NC(=O)c3ccc(Cl)s3)ccc21` showed an RP-LC retention time of 958 s.
For the molecule `COc1cccc(CNC(=O)Cn2c(=O)c3cc(-c4ccco4)nn3c3ncccc32)c1`, the RP-LC retention time was determined as 771 s.
As for `Nc1nc(N2CCCC2)ncc1C(=O)NCc1ccccc1F`, the RP-LC retention time was found to be 643 s.
As for `CC1CCN(Cc2nc(Cn3ccn4nc(-c5ccc(F)cc5)cc4c3=O)no2)CC1`, the figure is 703 s; as for `Cc1nnc(-c2nnc(NCc3ccc(Cl)cc3)c3ccccc23)o1`, 886 s.
In the case of `COc1ccc(-c2noc(C3CCCN3C(=O)c3ccc(C)s3)n2)cc1` (centres undefined), the RP-LC retention time is 996 s.
Molecule `O=C(Cc1nc(-c2ccccn2)n[nH]1)Nc1ccc(Cl)cc1` yielded an RP-LC retention time of 666 s.
In turn, `CC(C)C(=O)NCCc1csc(C2CCCN(C(=O)C3CCC3)C2)n1` (centres undefined) showed an RP-LC retention time of 711 s.
As for `CN(CC1CCOCC1)C(=O)NCc1cccc(F)c1`, the figure is 684 s; as for `Cc1cc(C(=O)O)c2cc(F)ccc2n1`, 486 s; as for `Cc1cccc(Nc2c(-c3ccccc3)nc3ncccn23)c1C`, 671 s.
As to `COc1cc(OC)c(NC(=O)N(C)CCc2noc(COc3ccccc3)n2)cc1Cl`, the RP-LC retention time is 957 s.
Molecule `CCCN1C(=O)COc2ccc(-c3noc(-c4cccc(Cl)c4)n3)cc21` gave an RP-LC retention time of 1350 s.
As for `Cn1nc(C(=O)N2CCCC(C(=O)Nc3ccccc3)C2)c2c1CCN(C(=O)C(C)(C)C)C2` (centres undefined), the figure is 745 s.
With `CCCN(CCC)S(=O)(=O)c1ccc(C(=O)Nc2nc3c(s2)CCc2ccccc2-3)cc1`, the RP-LC retention time was 1310 s.
In turn, `COc1ccc(NC(=O)Cn2cccc2-c2nnc(C3CCC3)o2)cc1Cl` yielded an RP-LC retention time of 951 s.
As for `O=[N+]([O-])c1cc(O)c(O)c([N+](=O)[O-])c1`, the RP-LC retention time turned out to be 730 s.
For the molecule `Cc1ccc(NC(=O)N2CCCC(C)(C(=O)NCc3ccccc3)C2)c(Cl)c1` (centres undefined), the RP-LC retention time amounted to 993 s.
In the case of `CSc1ccccc1NC(=O)C(=O)NCCn1nc(-c2ccco2)ccc1=O`, the RP-LC retention time stood at 781 s.
